Assays:
[1] = molecular target: CDK7/Cyclin H/MNAT1 (Homo sapiens, UniProt P50613); assay: Inhibition of recombinant full length human CDK7/cyclinH/MAT1 using peptide substrate incubated for 40 mins in presence of [gamma-33ATP] by radiometric scintillation counting analysis; type: protein-complex assay
[2] = molecular target: Serine/threonine-protein kinase Nek3 (Homo sapiens, UniProt P51956); assay: Inhibition of recombinant full-length human NEK3 using myelin basic protein as substrate measured after 40 mins in presence of [gamma33P]ATP by radiometric scintillation counting analysis
[3] = molecular target: G protein-coupled receptor kinase 3 (Homo sapiens, UniProt P35626); assay: Inhibition of recombinant full length human GRK3 using casein as substrate after 40 mins in presence of [gamma-33ATP] by radiometric scintillation counting analysis
Sequence of G protein-coupled receptor kinase 3 (P35626 whole entry, the tested form may be a part): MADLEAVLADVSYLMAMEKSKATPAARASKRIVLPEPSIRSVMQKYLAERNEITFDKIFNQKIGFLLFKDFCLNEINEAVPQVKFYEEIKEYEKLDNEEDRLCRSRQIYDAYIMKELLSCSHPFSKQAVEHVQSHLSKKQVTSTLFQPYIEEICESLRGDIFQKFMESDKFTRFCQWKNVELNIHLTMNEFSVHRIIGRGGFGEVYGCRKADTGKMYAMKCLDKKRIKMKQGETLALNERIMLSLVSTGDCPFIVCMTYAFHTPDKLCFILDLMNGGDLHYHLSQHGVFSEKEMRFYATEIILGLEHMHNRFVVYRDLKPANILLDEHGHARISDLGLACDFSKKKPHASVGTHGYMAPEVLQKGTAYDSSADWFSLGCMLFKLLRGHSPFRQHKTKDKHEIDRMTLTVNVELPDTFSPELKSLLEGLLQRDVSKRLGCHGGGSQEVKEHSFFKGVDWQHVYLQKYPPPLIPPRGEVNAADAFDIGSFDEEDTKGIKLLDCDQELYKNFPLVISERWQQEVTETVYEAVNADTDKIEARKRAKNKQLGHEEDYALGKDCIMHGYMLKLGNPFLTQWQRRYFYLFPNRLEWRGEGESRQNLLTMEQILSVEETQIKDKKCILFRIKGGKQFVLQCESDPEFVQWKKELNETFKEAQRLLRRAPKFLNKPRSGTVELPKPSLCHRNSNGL

[4] = molecular target: Serine/threonine-protein kinase WNK3 (Homo sapiens, UniProt Q9BYP7); assay: Inhibition of recombinant human WNK3 (1 to 434 residues) using myelin basic protein as substrate incubated for 40 mins in presence of [gamma33P]ATP by radiometric scintillation counting analysis
[5] = molecular target: Dual specificity mitogen-activated protein kinase kinase 2 (Homo sapiens, UniProt P36507); assay: Inhibition of recombinant full length human MEK2 using MBP as substrate incubated for 40 mins in presence of [gamma-33ATP by radiometric scintillation counting analysis
Sequence of Dual specificity mitogen-activated protein kinase kinase 2 (P36507 whole entry): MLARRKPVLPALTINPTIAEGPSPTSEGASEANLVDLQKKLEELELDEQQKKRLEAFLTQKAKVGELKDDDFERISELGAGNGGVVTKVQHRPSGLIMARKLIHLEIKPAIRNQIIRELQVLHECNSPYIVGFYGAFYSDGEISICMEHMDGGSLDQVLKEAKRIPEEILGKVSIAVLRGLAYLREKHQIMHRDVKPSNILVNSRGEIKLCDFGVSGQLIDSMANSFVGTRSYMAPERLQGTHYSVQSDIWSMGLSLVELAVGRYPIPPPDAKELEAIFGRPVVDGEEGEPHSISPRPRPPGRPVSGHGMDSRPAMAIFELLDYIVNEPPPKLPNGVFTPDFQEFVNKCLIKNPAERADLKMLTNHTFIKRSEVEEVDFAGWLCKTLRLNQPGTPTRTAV

[6] = molecular target: Protein kinase C gamma type (Homo sapiens, UniProt P05129); assay: Inhibition of recombinant full-length human PKCgamma using histone H1 as substrate incubated for 40 mins in presence of [gamma33P]ATP by radiometric scintillation counting analysis
[7] = molecular target: Rhodopsin kinase GRK7 (Homo sapiens, UniProt Q8WTQ7); assay: Inhibition of recombinant full length human GRK7 using casein as substrate after 40 mins in presence of [gamma-33ATP] by radiometric scintillation counting analysis
[8] = molecular target: Phosphatidylinositol 4-phosphate 3-kinase C2 domain-containing subunit alpha (Homo sapiens, UniProt O00443); assay: Inhibition of human PI3KC2
[9] = molecular target: Dual specificity mitogen-activated protein kinase kinase 6 (Homo sapiens, UniProt P52564); assay: Inhibition of recombinant human MKK6 (4 to end residues) using SAPK2 as substrate incubated for 40 mins by radiometric scintillation counting analysis
[10] = molecular target: Cyclin-dependent kinase 5/CDK5 activator 1 (Homo sapiens, UniProt Q00535); assay: Inhibition of recombinant full length human CDK5/p25 using histone H1 as substrate incubated for 40 mins in presence of [gamma-33ATP] by radiometric scintillation counting analysis; type: protein-complex assay
[11] = molecular target: Tyrosine-protein kinase BTK (Homo sapiens, UniProt Q06187); assay: Inhibition of recombinant full length human BTK using KVEKIGEGTYGVV substrate incubated for 40 mins in presence of [gamma-33ATP] by radiometric scintillation counting analysis
[12] = molecular target: Tau-tubulin kinase 2 (Homo sapiens, UniProt Q6IQ55); assay: Inhibition of recombinant human TTBK2 (1 to331 residues) using casein as substrate incubated for 40 mins in presence of [gamma33P]ATP by radiometric scintillation counting analysis
[13] = molecular target: Calcium/calmodulin-dependent protein kinase type II subunit alpha (Homo sapiens, UniProt Q9UQM7); assay: Inhibition of recombinant full length human CaMK2alpha using KKLNRTLSFAEPG as substrate incubated for 40 mins in presence of [gamma-33ATP] by radiometric scintillation counting analysis
Sequence of Calcium/calmodulin-dependent protein kinase type II subunit alpha (Q9UQM7 whole entry, the tested form may be a part, canonical isoform): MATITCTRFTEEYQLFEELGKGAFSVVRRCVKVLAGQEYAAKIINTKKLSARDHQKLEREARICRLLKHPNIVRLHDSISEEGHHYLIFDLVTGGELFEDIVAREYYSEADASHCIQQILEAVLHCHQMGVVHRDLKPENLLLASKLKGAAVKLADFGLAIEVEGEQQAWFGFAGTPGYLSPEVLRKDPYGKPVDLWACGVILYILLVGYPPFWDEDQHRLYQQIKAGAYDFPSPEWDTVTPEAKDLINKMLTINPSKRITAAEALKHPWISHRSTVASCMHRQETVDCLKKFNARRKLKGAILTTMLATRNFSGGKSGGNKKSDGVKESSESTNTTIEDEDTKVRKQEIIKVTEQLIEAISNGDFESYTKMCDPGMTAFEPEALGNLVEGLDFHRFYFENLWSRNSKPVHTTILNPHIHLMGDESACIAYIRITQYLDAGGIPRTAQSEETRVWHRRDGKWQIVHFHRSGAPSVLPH

[14] = molecular target: Casein kinase I isoform gamma-1 (Homo sapiens, UniProt Q9HCP0); assay: Inhibition of recombinant human CK1gamma1(25 to 355 residues) using KRRRALS(p)VAS as substrate incubated for 40 mins in presence of [gamma-33ATP] by radiometric scintillation counting analysis
[15] = molecular target: Tyrosine-protein kinase Yes (Homo sapiens, UniProt P07947); assay: Inhibition of recombinant full-length human Yes using poly(Glu, Tyr) 4:1 as substrate incubated for 40 mins in presence of [gamma33P]ATP by radiometric scintillation counting analysis
[16] = molecular target: Aurora kinase B (Homo sapiens, UniProt Q96GD4); assay: Inhibition of recombinant full length human AURORA-B using AKRRRLSSLRA as substrate incubated for 40 mins in presence of [gamma-33P]ATP and 10 uM ATP by radiometric scintillation counting analysis
Sequence of Aurora kinase B (Q96GD4 whole entry): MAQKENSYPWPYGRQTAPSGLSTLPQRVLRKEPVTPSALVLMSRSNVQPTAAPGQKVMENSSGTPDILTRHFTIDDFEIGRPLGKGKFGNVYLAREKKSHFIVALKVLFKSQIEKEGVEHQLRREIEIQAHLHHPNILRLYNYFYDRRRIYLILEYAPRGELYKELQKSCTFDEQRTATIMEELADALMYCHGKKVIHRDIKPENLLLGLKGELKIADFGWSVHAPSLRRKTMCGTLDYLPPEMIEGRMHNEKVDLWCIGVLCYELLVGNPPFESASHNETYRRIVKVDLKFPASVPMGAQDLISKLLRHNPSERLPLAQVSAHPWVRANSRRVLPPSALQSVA

[17] = molecular target: Serine/threonine-protein kinase Nek11 (Homo sapiens, UniProt Q8NG66); assay: Inhibition of recombinant full length human NEK11 using myelin basic protein as substrate measured after 40 mins in presence of [gamma33P]ATP by radiometric scintillation counting analysis
[18] = molecular target: Serine/threonine-protein kinase 10 (Homo sapiens, UniProt O94804); assay: Inhibition of recombinant human LOK (1 to 348 residues) using RLGRDKYKTLRQI as substrate after 40 mins in presence of [gamma-33ATP] by radiometric scintillation counting analysis
[19] = molecular target: Calcium/calmodulin-dependent protein kinase type 1 (Homo sapiens, UniProt Q14012); assay: Inhibition of recombinant human CaMK1alpha (2 to end residues) using calmodulin as substrate incubated for 40 mins in presence of [gamma-33ATP] by radiometric scintillation counting analysis
Sequence of Calcium/calmodulin-dependent protein kinase type 1 (Q14012 whole entry): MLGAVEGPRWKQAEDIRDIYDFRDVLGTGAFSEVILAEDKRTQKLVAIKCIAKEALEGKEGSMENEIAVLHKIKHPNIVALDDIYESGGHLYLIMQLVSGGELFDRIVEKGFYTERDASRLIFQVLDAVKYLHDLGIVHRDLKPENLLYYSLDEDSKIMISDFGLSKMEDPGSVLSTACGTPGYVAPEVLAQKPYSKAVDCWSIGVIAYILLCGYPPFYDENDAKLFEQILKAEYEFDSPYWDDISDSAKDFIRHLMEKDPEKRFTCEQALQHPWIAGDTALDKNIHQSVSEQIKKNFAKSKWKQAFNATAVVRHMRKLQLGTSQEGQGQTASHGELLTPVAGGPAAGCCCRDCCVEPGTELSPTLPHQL

[20] = molecular target: Testis-specific serine/threonine-protein kinase 4 (Homo sapiens, UniProt Q6SA08); assay: Inhibition of recombinant full-length human TSSK4 using KKLNRTLSFAEPG as substrate incubated for 40 mins in presence of [gamma33P]ATP by radiometric scintillation counting analysis
[21] = molecular target: Ribosomal protein S6 kinase alpha-6 (Homo sapiens, UniProt Q9UK32); assay: Inhibition of recombinant full length human Rsk4 using LRRASLG as substrate incubated for 40 mins in presence of [gamma33P]ATP by radiometric scintillation counting analysis
[22] = molecular target: Mitogen-activated protein kinase kinase kinase kinase 4 (Homo sapiens, UniProt O95819); assay: Inhibition of recombinant human MAP4K4 (1 to 328 residues) using RLGRDKYKTLRQI as substrate incubated for 40 mins in presence of [gamma-33ATP by radiometric scintillation counting analysis
[23] = molecular target: Cyclin-dependent kinase 14/Cyclin-Y (Homo sapiens, UniProt O94921); assay: Inhibition of recombinant full length human CDK14/cyclinY in presence of [gamma-33ATP] by radiometric scintillation counting analysis; type: protein-complex assay
Sequence of Cyclin-dependent kinase 14/Cyclin-Y (O94921 whole entry): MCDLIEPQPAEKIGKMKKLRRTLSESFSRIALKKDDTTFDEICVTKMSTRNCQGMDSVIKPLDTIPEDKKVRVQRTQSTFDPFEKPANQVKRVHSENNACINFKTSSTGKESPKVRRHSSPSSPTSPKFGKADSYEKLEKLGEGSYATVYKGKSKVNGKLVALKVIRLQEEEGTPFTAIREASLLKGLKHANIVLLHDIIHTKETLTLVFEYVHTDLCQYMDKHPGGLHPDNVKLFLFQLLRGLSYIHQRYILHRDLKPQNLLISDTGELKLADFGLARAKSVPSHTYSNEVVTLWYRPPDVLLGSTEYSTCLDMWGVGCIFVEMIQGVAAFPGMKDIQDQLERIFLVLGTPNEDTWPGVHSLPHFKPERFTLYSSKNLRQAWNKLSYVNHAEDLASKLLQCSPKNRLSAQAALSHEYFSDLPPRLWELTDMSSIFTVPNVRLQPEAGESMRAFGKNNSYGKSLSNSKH
Sequence of Cyclin-dependent kinase 14/Cyclin-Y (Q8ND76 whole entry, further chain): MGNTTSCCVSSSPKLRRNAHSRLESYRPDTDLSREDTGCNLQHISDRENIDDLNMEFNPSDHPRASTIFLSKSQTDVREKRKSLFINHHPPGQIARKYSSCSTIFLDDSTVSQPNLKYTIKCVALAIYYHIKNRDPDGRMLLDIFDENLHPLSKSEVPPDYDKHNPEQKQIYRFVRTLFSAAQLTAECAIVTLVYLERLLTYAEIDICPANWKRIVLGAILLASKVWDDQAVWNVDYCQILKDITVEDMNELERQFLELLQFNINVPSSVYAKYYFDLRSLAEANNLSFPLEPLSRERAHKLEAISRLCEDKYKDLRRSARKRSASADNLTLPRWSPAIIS

[24] = molecular target: Serine/threonine-protein kinase 32B (Homo sapiens, UniProt Q9NY57); assay: Inhibition of recombinant human full length STK32B using casein as substrate incubated for 40 mins in presence of [gamma33P]ATP by radiometric scintillation counting analysis
Sequence of Serine/threonine-protein kinase 32B (Q9NY57 whole entry): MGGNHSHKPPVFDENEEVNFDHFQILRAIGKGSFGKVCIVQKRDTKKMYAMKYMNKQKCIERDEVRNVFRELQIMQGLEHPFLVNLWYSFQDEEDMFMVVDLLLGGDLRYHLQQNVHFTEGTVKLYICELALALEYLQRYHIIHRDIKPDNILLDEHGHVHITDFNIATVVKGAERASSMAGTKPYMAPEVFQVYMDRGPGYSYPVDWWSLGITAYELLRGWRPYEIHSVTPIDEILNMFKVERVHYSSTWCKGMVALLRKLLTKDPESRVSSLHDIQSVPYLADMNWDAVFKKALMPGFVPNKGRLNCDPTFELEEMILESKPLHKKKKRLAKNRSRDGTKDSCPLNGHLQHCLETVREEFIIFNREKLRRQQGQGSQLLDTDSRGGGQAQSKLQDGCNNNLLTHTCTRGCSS

[25] = molecular target: Protein kinase C theta type (Homo sapiens, UniProt Q04759); assay: Inhibition of recombinant full length human PKCtheta using histone H1 as substrate incubated for 40 mins in presence of [gamma33P]ATP by radiometric scintillation counting analysis
[26] = molecular target: Fibroblast growth factor receptor 3 (Homo sapiens, UniProt P22607); assay: Inhibition of recombinant human FGFR3 (447 to 761 residues) using poly(Glu, Tyr) 4:1 as substrate after 40 mins in presence of [gamma-33ATP] by radiometric scintillation counting analysis
[27] = molecular target: Epidermal growth factor receptor (Homo sapiens, UniProt P00533, L858R/T790M); assay: Inhibition of recombinant human EGFR T790M/L858R double mutant (696 to end residues) using poly(Glu, Tyr) 4:1 as substrate after 40 mins in presence of [gamma-33ATP] by radiometric scintillation counting analysis
Sequence of Epidermal growth factor receptor (P00533 25-1210 T790M/L858R limits assumed): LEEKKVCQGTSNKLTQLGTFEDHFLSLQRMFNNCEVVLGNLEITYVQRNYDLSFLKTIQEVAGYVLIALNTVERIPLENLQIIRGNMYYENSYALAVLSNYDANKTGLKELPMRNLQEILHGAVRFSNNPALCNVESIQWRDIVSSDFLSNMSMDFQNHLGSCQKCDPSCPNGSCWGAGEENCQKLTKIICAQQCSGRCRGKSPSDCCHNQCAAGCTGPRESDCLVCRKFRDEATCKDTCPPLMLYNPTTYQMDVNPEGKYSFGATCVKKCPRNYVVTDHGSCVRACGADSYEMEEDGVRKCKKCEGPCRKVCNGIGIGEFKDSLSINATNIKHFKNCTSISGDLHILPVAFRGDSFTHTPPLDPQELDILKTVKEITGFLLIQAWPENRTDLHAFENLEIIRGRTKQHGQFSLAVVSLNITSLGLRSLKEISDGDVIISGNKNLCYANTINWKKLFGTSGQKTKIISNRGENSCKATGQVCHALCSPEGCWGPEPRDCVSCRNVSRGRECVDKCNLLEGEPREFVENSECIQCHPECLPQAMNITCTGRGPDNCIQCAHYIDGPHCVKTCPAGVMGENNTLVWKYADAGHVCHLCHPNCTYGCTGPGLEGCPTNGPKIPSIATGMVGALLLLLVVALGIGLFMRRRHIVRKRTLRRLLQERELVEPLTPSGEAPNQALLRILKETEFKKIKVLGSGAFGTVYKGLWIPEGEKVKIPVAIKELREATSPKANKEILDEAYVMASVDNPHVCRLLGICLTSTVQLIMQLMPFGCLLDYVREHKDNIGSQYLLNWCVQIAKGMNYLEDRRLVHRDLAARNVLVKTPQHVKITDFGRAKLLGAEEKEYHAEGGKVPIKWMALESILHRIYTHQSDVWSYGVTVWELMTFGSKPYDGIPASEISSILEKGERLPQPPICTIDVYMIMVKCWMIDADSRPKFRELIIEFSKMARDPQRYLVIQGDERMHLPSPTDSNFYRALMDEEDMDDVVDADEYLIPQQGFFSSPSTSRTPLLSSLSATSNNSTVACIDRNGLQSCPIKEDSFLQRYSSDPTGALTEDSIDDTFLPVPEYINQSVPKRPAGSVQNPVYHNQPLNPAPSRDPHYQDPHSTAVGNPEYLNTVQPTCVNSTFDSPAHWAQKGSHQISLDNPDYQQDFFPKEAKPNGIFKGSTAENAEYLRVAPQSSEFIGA

Measured: IC50

CN(C)c1ccc(C(=O)Nc2cccc(NC(=O)COc3ccc4c(=O)ccoc4c3)c2)cc1
1.24 µM: [16]
> 10 µM: all other assays above
